In ChEMBL document CHEMBL3826944, “Syringaresinol induces mitochondrial biogenesis through activation of PPARβ pathway in skeletal muscle cells” (Bioorg Med Chem Lett, 2016):
Active and inactive are the calls of the source.

How the values were obtained:
C2C12 [1] = experiment: Upregulation of PGC1-alpha protein expression in PPARbeta siRNA transfected mouse C2C12 myotubes at 1 uM after 24 hrs by immunoblot method relative to control; type: functional, cell-based
C2C12 [2] = experiment: Upregulation of PPARbeta protein expression in PPARbeta siRNA transfected mouse C2C12 myotubes at 1 uM after 24 hrs by immunoblot method; type: functional, cell-based
C2C12 [3] = experiment: Upregulation of UCP2 protein expression in PPARbeta siRNA transfected mouse C2C12 myotubes at 1 uM after 24 hrs by immunoblot method relative to control; type: functional, cell-based
C2C12 [4] = experiment: Upregulation of CPT1 protein expression in PPARbeta siRNA transfected mouse C2C12 myotubes at 1 uM after 24 hrs by immunoblot method relative to control; type: functional, cell-based
C2C12 [5] = experiment: Induction of SIRT1 protein expression in mouse C2C12 myotubes at 1 uM after 24 hrs by immunoblot method; type: functional, cell-based
Mus musculus [6] = species: Mus musculus; experiment: Activation of AMPK in mouse C2C12 myotubes assessed as increase in expression of phosphorylated AMPK at Thr-172 residue at 1 uM after 24 hrs by immunoblot method
C2C12 [7] = experiment: Induction of mitochondrial density in PPARbeta siRNA transfected mouse C2C12 myotubes at 50 uM after 24 hrs by Mitotracker Green staining based fluorescence microscopic analysis; type: functional, cell-based
[8] = target: T1, Peroxisome proliferator-activated receptor delta (Homo sapiens, UniProt Q03181); experiment: (§1) Activation of PPARbeta-LBD (unknown origin) assessed as fluorescein-labeled coactivator C33 recruitment by TR-FRET assay
T1 sequence (Q03181 whole entry): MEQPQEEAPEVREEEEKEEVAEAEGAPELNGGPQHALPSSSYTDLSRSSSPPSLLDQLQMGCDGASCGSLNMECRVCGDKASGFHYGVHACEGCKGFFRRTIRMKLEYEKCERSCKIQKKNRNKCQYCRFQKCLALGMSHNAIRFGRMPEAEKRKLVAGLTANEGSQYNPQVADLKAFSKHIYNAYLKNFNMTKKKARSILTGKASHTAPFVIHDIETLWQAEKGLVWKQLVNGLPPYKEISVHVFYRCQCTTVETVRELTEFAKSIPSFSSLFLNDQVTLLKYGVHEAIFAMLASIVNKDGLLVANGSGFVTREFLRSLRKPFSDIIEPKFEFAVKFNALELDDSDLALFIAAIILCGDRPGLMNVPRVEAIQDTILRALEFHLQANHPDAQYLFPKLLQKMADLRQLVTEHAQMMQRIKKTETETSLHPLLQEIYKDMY

[9] = target: T2, Peroxisome proliferator-activated receptor delta (Homo sapiens) (UniProt Q03181); experiment: as §1
T2 sequence (whole entry): T1 sequence (Q03181 whole entry)

C2C12 [10] = experiment: Induction of mitochondrial biogenesis in mouse C2C12 myotubes assessed as increase in mitochondrial DNA content at 25 to 50 uM after 24 hrs by qRT-PCR method; type: functional, cell-based
C2C12 [11] = experiment: Induction of mitochondrial biogenesis in mouse C2C12 myotubes assessed as increase in mitochondrial density at 25 uM after 24 hrs by Mitotracker Green staining based fluorescence microscopic analysis relative to control; type: functional
C2C12 [12] = experiment: Upregulation of PGC1-alpha protein expression in PPARbeta siRNA transfected mouse C2C12 myotubes at 50 uM after 24 hrs by immunoblot method relative to control; type: functional, cell-based
Mus musculus [13] = species: Mus musculus; experiment: Activation of AMPK in mouse C2C12 myotubes assessed as increase in expression of phosphorylated AMPK at Thr-172 residue at 50 uM after 24 hrs by immunoblot method
[14] = target: T3, Peroxisome proliferator-activated receptor delta (Mus musculus) (UniProt P35396); experiment: Activation of PPARbeta in mouse C2C12 myotubes assessed as increase in PGC-1alpha protein expression at 10 to 25 uM after 24 hrs by immunoblot method
T3 sequence (whole entry): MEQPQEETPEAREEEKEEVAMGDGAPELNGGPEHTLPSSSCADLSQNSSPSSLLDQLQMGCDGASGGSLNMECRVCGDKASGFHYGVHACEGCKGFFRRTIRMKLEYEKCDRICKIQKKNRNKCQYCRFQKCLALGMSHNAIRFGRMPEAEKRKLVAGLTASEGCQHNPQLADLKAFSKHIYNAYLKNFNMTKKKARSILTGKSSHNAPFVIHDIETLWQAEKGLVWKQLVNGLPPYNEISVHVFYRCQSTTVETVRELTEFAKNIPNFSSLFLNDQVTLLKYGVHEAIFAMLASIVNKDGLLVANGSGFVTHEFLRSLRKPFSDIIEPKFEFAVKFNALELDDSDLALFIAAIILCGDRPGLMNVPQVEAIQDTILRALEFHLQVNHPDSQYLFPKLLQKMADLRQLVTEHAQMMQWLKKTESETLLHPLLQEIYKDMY

C2C12 [15] = experiment: Induction of mitochondrial density in scramble siRNA transfected mouse C2C12 myotubes at 50 uM after 24 hrs by Mitotracker Green staining based fluorescence microscopic analysis; type: functional, cell-based
C2C12 [16] = experiment: Upregulation of UCP2 protein expression in PPARbeta siRNA transfected mouse C2C12 myotubes at 50 uM after 24 hrs by immunoblot method relative to control; type: functional, cell-based
[17] = target: T3, Peroxisome proliferator-activated receptor delta (Mus musculus); experiment: Activation of PPARbeta in mouse C2C12 myotubes assessed as increase in PGC-1alpha mRNA level at 10 to 25 uM after 24 hrs by qRT-PCR method
C2C12 [18] = experiment: Induction of PPARbeta protein expression in mouse C2C12 myotubes at <50 uM after 24 hrs by immunoblot method; type: functional, cell-based
C2C12 [19] = experiment: Induction of mitochondrial biogenesis in mouse C2C12 myotubes assessed as increase in mitochondrial density at 50 uM after 24 hrs by Mitotracker Green staining based fluorescence microscopic analysis relative to control; type: functional
C2C12 [20] = experiment: Induction of mitochondrial DNA content in PPARbeta siRNA transfected mouse C2C12 myotubes at 50 uM after 24 hrs by qRT-PCR method; type: functional, cell-based
C2C12 [21] = experiment: Induction of SIRT1 protein expression in mouse C2C12 myotubes at 50 uM after 24 hrs by immunoblot method; type: functional, cell-based
C2C12 [22] = experiment: Induction of PPARbeta mRNA expression in mouse C2C12 myotubes at <50 uM after 24 hrs by qRT-PCR method; type: functional, cell-based
C2C12 [23] = experiment: Upregulation of CPT1 protein expression in PPARbeta siRNA transfected mouse C2C12 myotubes at 50 uM after 24 hrs by immunoblot method relative to control; type: functional, cell-based
[24] = target: T1, Peroxisome proliferator-activated receptor delta; experiment: Binding affinity to recombinant PPARbeta-LBD (254 to 441 residues) (unknown origin) expressed in Escherichia coli Rosetta2 cells by isothermal titration calorimetry
C2C12 [25] = experiment: Induction of PPARbeta mRNA expression in mouse C2C12 myotubes at 50 uM after 24 hrs by qRT-PCR method relative to control; type: functional
C2C12 [26] = experiment: Induction of mitochondrial DNA content in scramble siRNA transfected mouse C2C12 myotubes at 50 uM after 24 hrs by qRT-PCR method; type: functional, cell-based
C2C12 [27] = experiment: Upregulation of PPARbeta protein expression in PPARbeta siRNA transfected mouse C2C12 myotubes at 50 uM after 24 hrs by immunoblot method; type: functional, cell-based
C2C12 [28] = experiment: Induction of PPARbeta protein expression in mouse C2C12 myotubes at 50 uM after 24 hrs by immunoblot method; type: functional, cell-based

Cc1cc(SCc2sc(-c3ccc(C(F)(F)F)c(F)c3)nc2C)ccc1OCC(=O)O
inactive: Activity (C2C12 [1]) | Activity (C2C12 [2]) | Activity (C2C12 [3]) | Activity (C2C12 [4])
active: Activity (C2C12 [5]) | Activity (Mus musculus [6])

COc1cc([C@H]2OC[C@H]3[C@@H]2CO[C@@H]3c2cc(OC)c(O)c(OC)c2)cc(OC)c1O [SYRINGARESINOL]
18.1 µM: EC50 [8]
18%: Activity (C2C12 [19])
27.6 µM: Kd [24]
>2: fold change (FC) (C2C12 [25])
inactive: Activity (C2C12 [7]) | Activity (C2C12 [12]) | Activity (Mus musculus [13]) | Activity (C2C12 [16]) | Activity (C2C12 [18]) | Activity (C2C12 [20]) | Activity (C2C12 [21]) | Activity (C2C12 [22]) | Activity (C2C12 [23]) | Activity (C2C12 [27])
14%: Activity (C2C12 [11])
active: Activity [9] Dose-dependent effect | Activity (C2C12 [10]) Dose-dependent effect | Activity [14] | Activity (C2C12 [15]) | Activity [17] | Activity (C2C12 [26]) | Activity (C2C12 [28])
